Assay results: paper PMC7312458, “The Structural Basis of the Binding of Various Aminopolycarboxylates by the Periplasmic EDTA-Binding Protein EppA from Chelativorans sp. BNC1” (International Journal of Molecular Sciences, 2020)
Where “and” joins values, the source holds several entries; their conditions need not be identical. Identical values can stand only once. Like-named read-outs stand apart in the source and are kept apart here.

Key:
EppA [1] = biological target: T1, EppA (Chelativorans sp. BNC1, UniProt Q11H97); assay: Isothermal titration calorimetry of wild-type EppA with chelators and metal chelates; assay type: binding
T1 sequence (Q11H97 entry or part of it): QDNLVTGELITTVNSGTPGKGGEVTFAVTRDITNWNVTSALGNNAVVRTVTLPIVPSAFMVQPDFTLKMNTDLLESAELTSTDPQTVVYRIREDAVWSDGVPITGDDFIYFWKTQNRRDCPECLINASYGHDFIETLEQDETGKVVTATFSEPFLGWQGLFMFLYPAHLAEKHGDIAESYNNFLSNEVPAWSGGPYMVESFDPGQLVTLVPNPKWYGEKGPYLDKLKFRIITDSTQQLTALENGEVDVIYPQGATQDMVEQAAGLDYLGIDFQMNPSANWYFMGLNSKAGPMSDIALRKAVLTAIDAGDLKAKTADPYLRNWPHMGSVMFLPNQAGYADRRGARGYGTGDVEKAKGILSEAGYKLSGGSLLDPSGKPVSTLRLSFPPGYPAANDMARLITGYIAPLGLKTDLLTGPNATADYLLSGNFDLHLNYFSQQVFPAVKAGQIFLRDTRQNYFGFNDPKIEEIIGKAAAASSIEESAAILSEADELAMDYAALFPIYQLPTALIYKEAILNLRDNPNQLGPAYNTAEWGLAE

R74A EppA mutant = R74A EppA mutant (Chelativorans sp. BNC1, UniProt Q11H97, R74A); assay: biochemical
Chain of R74A EppA mutant (Q11H97 27-563, stated change not applied): as the sequence (Q11H97 entry or part of it) above
Experimental: (§1) All primers were ordered from Invitrogen (Carlsbad, CA, USA).
(§2) Isothermal calorimetric titrations were performed in a MicroCal iTC200 (Malvern Panalytical Ltd.; Malvern, UK). All titrations were performed at 25 °C and stirred at 750 rpm. […] EppA–ligand binding curves were corrected for heats of dilution by subtracting reference titrations of ligands at the same concentrations into a buffer without EppA. Data were fitted to a single-site model as implemented into the Origin 7 MicroCal Data Analysis software analysis package (Malvern Panalytical Ltd.; Malvern, UK) and then plotted in Excel.

R56A EppA mutant = R56A EppA mutant (Chelativorans sp. BNC1, UniProt Q11H97, R56A); assay: biochemical
Chain of R56A EppA mutant (Q11H97 27-563, stated change not applied): as the sequence (Q11H97 entry or part of it) above
Experimental: as §1, §2

R480A EppA mutant = R480A EppA mutant (Chelativorans sp. BNC1, UniProt Q11H97, R480A); assay: biochemical
Chain of R480A EppA mutant (Q11H97 27-563, stated change not applied): as the sequence (Q11H97 entry or part of it) above
Experimental: as §1, §2

K470A EppA mutant = K470A EppA mutant (Chelativorans sp. BNC1, UniProt Q11H97, K470A); assay: biochemical
Chain of K470A EppA mutant (Q11H97 27-563, stated change not applied): as the sequence (Q11H97 entry or part of it) above
Experimental: as §1, §2

EppA [2] = biological target: T1, EppA; conditions: earlier report; cited from earlier work
[3] = ITC, wild-type EppA, 25 °C, single replicate, n.b. = no binding
[4] = ITC, wild-type EppA, 25 °C, single-site model, single replicate, n.b. = no binding

| Molecule | ∆H (EppA [1]; [3]) | ∆S (EppA [1]; [3]) | Kd (EppA [1]; [4]) | ∆H (EppA [1]) | ∆S (EppA [1]) [cal mol^−1 K^−1] | binding by EppA (in words) (EppA [1]; ITC, wild-type EppA) | other results |
| --- | --- | --- | --- | --- | --- | --- | --- |
| O=C([O-])CN(CCN(CC(=O)O)CC(=O)O)CC(=O)[O-].[Ba+2] [BaEDTA] | n.b. | n.b. | n.b. |  |  |  |  |
| O=C(O)CN(CCN(CC(=O)O)CC(=O)O)CC(=O)O.[Ca+2] [CaEDTA] |  |  |  | -12.2 ± 0.159 kJ/mol | 16.0 |  | binding by EppA (in words) (EppA [1]): bound |
| O=C([O-])CN(CCOCCOCCN(CC(=O)O)CC(=O)O)CC(=O)[O-].[Ca+2] [CaEGTA] | n.b. | n.b. | n.b. |  |  | not |  |
| O=C(O)CN(CCN(CC(=O)O)CC(=O)O)CC(=O)O.[Cd+2] [CdEDTA] | -2.32 ± 0.0084 kJ/mol | 28.1 cal mol^−1 K^−1 |  |  |  | did not bind |  |
| O=C([O-])CN(CCN(CC(=O)[O-])CC(=O)[O-])CC(=O)[O-].[Co+2] [CoEDTA] | n.b. | n.b. | n.b. |  |  | did not bind |  |
| O=C(O)CN(CCN(CC(=O)O)CC(=O)O)CC(=O)O.[Cr+3] [CrEDTA] |  |  |  | -10.77 ± 0.607 kJ/mol | 30.5 |  |  |
| O=C([O-])CN(CCN(CC(=O)[O-])CC(=O)[O-])CC(=O)[O-].[Cu+2] [CuEDTA] | n.b. | n.b. | n.b. |  |  | did not bind |  |
| O=C(O)CNCCNCC(=O)O [EDDA, ethylenediamine-N,N′-diacetate, reference compound] |  |  |  | -3.56 ± 3.74 kJ/mol | 26.7 |  | Kd (EppA [1]; ITC, wild-type EppA, 25 °C, single-site model, single replicate, n.b. = no binding, read-out: Kd): 0.588 µM and 0.34 µM |
| O=C(O)CN(CCN(CC(=O)O)CC(=O)O)CC(=O)O [EDTA, ethylenediaminetetraacetate] |  |  |  | -9.552 kJ/mol and -9.552 ± 0.29 kJ/mol and -9.552 ± 0.293 kJ/mol | 29 |  | Kd (R74A EppA mutant): 0.249 ± 0.382 µM; ∆H (R74A EppA mutant; ITC, R74A mutant, 25 °C): -7.853 kJ/mol and -7.853 ± 0.816 kJ/mol; ∆S (R74A EppA mutant; ITC, R74A mutant, 25 °C): 23.9 cal mol^−1 K^−1; reduction in EDTA binding (R74A EppA mutant; R74A vs wild-type EppA): 26 fold; Kd (R56A EppA mutant): 0.161 ± 0.272 µM; ∆H (R56A EppA mutant; ITC, R56A mutant, 25 °C): -7.54 kJ/mol and -7.54 ± 0.615 kJ/mol; ∆S (R56A EppA mutant; ITC, R56A mutant, 25 °C): 25 cal mol^−1 K^−1; reduction in EDTA binding (R56A EppA mutant; R56A vs wild-type EppA): 17 fold; Kd (R480A EppA mutant): 0.0408 ± 0.0265 µM; ∆H (R480A EppA mutant; ITC, R480A mutant, 25 °C): -4.761 kJ/mol and -4.761 ± 0.372 kJ/mol; ∆S (R480A EppA mutant; ITC, R480A mutant, 25 °C): 30 cal mol^−1 K^−1; reduction in EDTA binding (R480A EppA mutant; R480A vs wild-type EppA): 4 fold; Kd (K470A EppA mutant): 0.0271 ± 0.0202 µM; ∆H (K470A EppA mutant; ITC, K470A mutant, 25 °C): -7.832 kJ/mol and -7.832 ± 0.49 kJ/mol; ∆S (K470A EppA mutant; ITC, K470A mutant, 25 °C): 28.3 cal mol^−1 K^−1; reduction in EDTA binding (K470A EppA mutant; K470A vs wild-type EppA): 3 fold; binding by EppA (in words) (EppA [2]): binds; Kd (EppA [1]; Kd, ITC, wild-type EppA, 25 °C, single replicate): 0.00952 ± 0.00625 µM; Kd (EppA [1]; Kd, ITC, wild-type EppA, 25 °C, single-site model, single replicate, n.b. = no binding): 0.0095 ± 0.006 µM |
| O=C(O)CN(CCOCCOCCN(CC(=O)O)CC(=O)O)CC(=O)O [EGTA, ethylene glycol-bis(β-aminoethylether)-N,N,N′,N′-tetraacetic acid, reference compound] | -18.16 kJ/mol and -18.2 ± 0.477 kJ/mol | 16.40 cal mol^−1 K^−1 and 16.4 cal mol^−1 K^−1 |  |  |  |  |  |
| O=C(O)CN(CCN(CC(=O)O)CC(=O)O)CC(=O)O.[Eu+3] [EuEDTA] |  |  |  | -16.5 ± 0.439 kJ/mol | 7.72 |  |  |
| O=C([O-])CN(CCN(CC(=O)[O-])CC(=O)[O-])CC(=O)[O-].[Fe+3] [FeEDTA] | n.b. | n.b. | n.b. |  |  | did not bind |  |
| O=C(O)CN(CCN(CC(=O)O)CC(=O)O)CC(=O)O.[Mg+2] [MgEDTA] |  |  |  | -16.85 ± 0.155 kJ/mol | 16.2 |  |  |
| O=C([O-])CN(CCN(CC(=O)[O-])CC(=O)[O-])CC(=O)[O-].[Ni+2] [NiEDTA] | n.b. | n.b. | n.b. |  |  | did not bind |  |
| O=C(O)CN(CCN(CC(=O)O)CC(=O)O)CC(=O)O.[Sr+2] [SrEDTA] |  |  |  | -18.38 ± 0.494 kJ/mol | 27.1 |  |  |
| O=C(O)CN(CCOCCOCCN(CC(=O)O)CC(=O)O)CC(=O)O.[Sr+2] [SrEGTA] | 3.32 ± 0.686 kJ/mol | 27.1 cal mol^−1 K^−1 |  |  |  |  |  |
| O=C(O)CN(CCN(CC(=O)O)CC(=O)O)CC(=O)O.[Tb+3] [TbEDTA] |  |  |  | -3.14 ± 0.289 kJ/mol | 18.1 |  |  |
| O=C(O)CN(CCN(CC(=O)O)CC(=O)O)CC(=O)O.[Zn] [ZnEDTA] | n.b. | n.b. | n.b. |  |  | did not bind |  |
| Asp10: decameric polyaspartate (DDDDDDDDDD) [reference compound] | n.b. | n.b. | n.b. ^c |  |  | did not bind |  |
| MnEDTA | n.b. | n.b. | n.b. |  |  | did not bind |  |
